These results are taken from patent US11518763B2 (SCOHIA PHARMA, INC., priority 2018, dated 2022).

Read-outs that look alike come from different tables or passages of the source.

For series [1] the following is noted: amide bond, DMF.
For series [2], the target named is T1, binding between NRF2 and KEAP1 (biotinylated human KEAP1 protein (Kelch domain), TAMRA-labeled NRF2 peptide) (Homo sapiens, UniProt Q14145).
T1 construct: biotinylated human KEAP1 protein (Kelch domain); biotin (biotinylated)
T1 sequence (Q14145 321-609 limits assumed): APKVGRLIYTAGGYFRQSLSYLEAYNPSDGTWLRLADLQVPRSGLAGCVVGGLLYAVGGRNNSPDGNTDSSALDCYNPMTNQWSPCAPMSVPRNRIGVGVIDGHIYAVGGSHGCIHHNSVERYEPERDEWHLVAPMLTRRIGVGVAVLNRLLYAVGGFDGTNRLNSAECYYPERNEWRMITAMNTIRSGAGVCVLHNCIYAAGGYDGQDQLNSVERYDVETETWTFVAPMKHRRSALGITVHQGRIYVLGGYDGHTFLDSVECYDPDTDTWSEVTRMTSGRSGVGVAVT
Kind of series: Measurement of activity of inhibiting NRF2 binding (NRF2-KEAP1 TR-FRET). Conditions: inhibition rate relative to control at 100 nM test compound; TR-FRET; 60 min at room temperature; read-out: NRF2 binding inhibitory activity (at 100 nM).

As for `CCOC(=O)CC1c2ccc3c(c2)CN(CC3)C(=O)c2ccc(cc2)COCCCn2nnc3c(C)c1ccc32` (stereo not shown), the ring closure, yield of all isomers in series [1] (from CCOC(=O)CC(c1ccc2c(c1)CN(C(=O)OC(C)(C)C)CC2)c1ccc2c(nnn2CCCOCc2ccc(C(=O)OC(C)(C)C)cc2)c1C, HATU, 23.0 mM, 25.0 °C, 3.0 h, 2 steps) was 67.7%. In the case of `COC(=O)C(C)(C)C1c2ccc3c(c2)CN(CC3)C(=O)c2c(C)cc(cc2C)COCCCn2nnc3c(C)c1ccc32` (stereo not shown), the ring closure, yield of all isomers in series [1] (from COC(=O)C(C)(C)C(c1ccc2c(c1)CNCC2)c1ccc2c(nnn2CCCOCc2cc(C)c(C(=O)O)c(C)c2)c1C, HATU, 30.4 mM, 25.0 °C, 4.0 h) was 29.6%. Consider `COC(=O)C(C)(C)C1c2ccc3c(c2)CN(CC3)C(=O)c2c(Cl)cc(cc2Cl)OCCCCn2nnc3c(C)c1ccc32` (stereo not shown), for which, in series [1] (from COC(=O)C(C)(C)C(c1ccc2c(c1)CNCC2)c1ccc2c(nnn2CCCCOc2cc(Cl)c(C(=O)O)c(Cl)c2)c1C, HATU/DIPEA, 15.2 mM, 25.0 °C, 4.0 h), the ring closure, yield of all isomers came out at 47.5%. As to `COC(=O)C(C)(C)C1c2ccc3c(c2)CN(CC3)C(=O)c2ccc(cc2)CCCCCn2nnc3c(C)c1ccc32` (stereo not shown), the ring closure, yield of all isomers in series [1] (from COC(=O)C(C)(C)C(c1ccc2c(c1)CNCC2)c1ccc2c(nnn2CCCCCc2ccc(C(=O)O)cc2)c1C, HATU, 17.6 mM, 30.0 °C, 19.0 h) worked out at 12.4%. In series [1] (from COC(=O)C(C)(C)C(c1ccc2c(c1)CNCC2)c1ccc2c(nnn2CCCOCc2ccc(C(=O)O)cc2)c1C, HATU, 18.6 mM, 25.0 °C, 4.0 h), `COC(=O)C(C)(C)C1c2ccc3c(c2)CN(CC3)C(=O)c2ccc(cc2)COCCCn2nnc3c(C)c1ccc32` (stereo not shown) yielded a ring closure, yield of all isomers of 20.7%. In series [1] (from CCOC(=O)CC(c1ccc2c(c1)CN(C(=O)OC(C)(C)C)CC2)c1ccc2c(nnn2CCCCCc2ccc(C(=O)OC(C)(C)C)cc2)c1C, HATU, 51.2 mM, 25.0 °C, 4.0 h, 2 steps), `CCOC(=O)CC1c2ccc3c(c2)CN(CC3)C(=O)c2ccc(cc2)CCCCCn2nnc3c(C)c1ccc32` (stereo not shown) [Example 37, Ethyl [32-methyl-20-oxo-8,9,10,21-tetraazahexacyclo[19.5.3.2^16,19.1^3,7.0^6,10.0^24,28]dotriaconta-1(26),3(32),4,6,8,16,18,24,27,30-decaen-2-yl]acetate] came in with a ring closure, yield of all isomers of 52.4%. Further, in series [2], the inhibition at 0.1 µM turned out to be 29%.
